From patent publication US20230099344A1, “COMPOUNDS AND METHODS FOR THE TARGETED DEGRADATION OF IRAK-4” (Arvinas Operations, Inc., priority 2021, published 2023) come the findings set out here.

SMILES strings stand for the structures.

In the test the target is T1, IRAK-4 (Homo sapiens, UniProt Q9NWZ3).
T1 sequence (Q9NWZ3 1-460): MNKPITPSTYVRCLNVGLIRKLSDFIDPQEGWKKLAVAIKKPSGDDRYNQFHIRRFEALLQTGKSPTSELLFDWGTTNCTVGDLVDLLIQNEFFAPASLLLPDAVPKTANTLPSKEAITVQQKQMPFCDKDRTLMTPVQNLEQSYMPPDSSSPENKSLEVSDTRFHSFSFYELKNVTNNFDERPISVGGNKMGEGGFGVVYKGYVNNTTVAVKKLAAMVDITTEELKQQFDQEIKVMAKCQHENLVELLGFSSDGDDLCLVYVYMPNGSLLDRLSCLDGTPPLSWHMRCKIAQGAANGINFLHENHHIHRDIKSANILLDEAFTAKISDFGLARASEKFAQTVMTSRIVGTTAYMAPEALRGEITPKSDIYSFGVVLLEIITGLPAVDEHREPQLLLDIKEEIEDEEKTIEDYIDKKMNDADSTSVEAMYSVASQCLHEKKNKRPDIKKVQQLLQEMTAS
As to the kind of experiment: IRAK-4 ELISA, PBMC degradation. The conditions noted are these: treated overnight. The arrangement: endogenous in cells; host or cells: PBMC. It counts as cell-based. On the procedure: Reagents: Human IRAK-4 Matched Antibody Pair Kit (Abcam ab218182) and ELISA Accessory Pack (Abcam ab210905).
Cell Treatment and Lysis:
1. OCI-Ly10: 200,000 cells are seeded at 1×10^6/ml in 96-well U-bottom plates 200 ul per well, treated with compound the same day. Incubate overnight. 2. PBMC: 800,000 cells are seeded at 2×10^6/ml in 96-well U-bottom deep-well plates, 400 ul per well, treated with compound the same day. Incubate overnight.
Cell lysate is collected and analyzed by ELISA for IRAK-4 levels.
(In an ELISA, binding on a coated surface is turned into a signal by an enzyme label.)

A word on the DC50: it is the concentration giving 50% degradation. High values mean a less potent degrader, low ones a more potent degrader. As usually defined, the Dmax is the largest share of the target that was removed.

As to `CC(C)Oc1cc2c(cc1NC(=O)c1cnn3cccnc13)CN(C1CCN(CCOCCOc3ccc4c(c3)CN(C3CCC(=O)NC3=O)C4=O)CC1)C2=O` (stereo not drawn) [Example 2], the DC50 is less than 1 nM, the Dmax was no less than 90% and the “PBMC DC90” value came to 2 nM.
`CC(C)Oc1cc2c(cc1NC(=O)c1cnn3cccnc13)CN(C1CCN(CCOc3ccc4c(c3)CN(C3CCC(=O)NC3=O)C4=O)CC1)C2=O` (stereo not drawn) [Example 3]: the DC50 was no less than 10 nM, the Dmax lay within 80 to 90% and the “PBMC DC90” value is 3 nM.
Regarding `COc1cc(CCN2CCC(N3Cc4cc(NC(=O)c5cnn6cccnc56)c(OC(C)C)cc4C3=O)CC2)cc2c1C(=O)N(C1CCC(=O)NC1=O)C2` (stereo not drawn) [Example 11], the DC50 was 1 to 5 nM; the Dmax was no less than 90%; the “PBMC DC90” value was “C (C represents a DC90 value ≥25.0 nM and <50 nM)”.
On to `COc1cc(N2CC(CN3CCC(N4Cc5cc(NC(=O)c6cnn7cccnc67)c(OC(C)C)cc5C4=O)CC3)C2)cc2c1C(=O)N(C1CCC(=O)NC1=O)C2=O` (stereo not drawn) [Example 14], for which the DC50 was less than 1 nM, the greatest degradation seen (Dmax) was no less than 90% and the “PBMC DC90” value was “A (A represents a DC90 value <10.0 nM)”.
`CC(C)Oc1cc2c(cc1NC(=O)c1cnn3cccnc13)CN(C1CCN(CCC3(F)CN(c4ccc5c(c4)C(=O)N(C4CCC(=O)NC4=O)C5=O)C3)CC1)C2=O` (stereo not drawn) [Example 15]: the DC50 is less than 1 nM, the Dmax lay in the range of 80 to 90% and the “PBMC DC90” value is reported as “A (A represents a DC90 value <10.0 nM)”.
For `CC(C)Oc1cc2c(cc1NC(=O)c1cnn3cccnc13)CN(C[C@@H](F)C1CCN(CC3CN(c4ccc5c(c4)CN(C4CCC(=O)NC4=O)C5=O)C3)CC1)C2=O` (stereo partly drawn) [Example 16], the DC50 was less than 1 nM, the greatest degradation seen (Dmax) is no less than 90% and the “PBMC DC90” value was “A (A represents a DC90 value <10.0 nM)”.
As for `CC(C)Oc1cc2c(cc1NC(=O)c1cnn3cccnc13)CN(C[C@@H](F)C1CN(CC3CCN(c4ccc5c(c4)CN(C4CCC(=O)NC4=O)C5=O)CC3)C1)C2=O` (stereo partly drawn) [Example 17], the DC50 is less than 1 nM, the Dmax lay within 80 to 90% and the “PBMC DC90” value is “A (A represents a DC90 value <10.0 nM)”.
With `CC(C)Oc1cc2c(cc1NC(=O)c1cnn3cccnc13)CN(C[C@@H](F)C1CCN(CC3CCN(c4ccc5c(c4)C(=O)N(C4CCC(=O)NC4=O)C5=O)CC3)CC1)C2=O` (stereo partly drawn) [Example 18], the DC50 is less than 1 nM, the Dmax is no less than 90% and the “PBMC DC90” value is on record as “A (A represents a DC90 value <10.0 nM)”.
For `CC(C)Oc1cc2c(cc1NC(=O)c1cnn3cccnc13)CN(C[C@@H](F)C1CCN(CC3CCN(c4ccc5c(c4)CN(C4CCC(=O)NC4=O)C5=O)CC3)CC1)C2=O` (stereo partly drawn) [Example 20] the same measures were less than 1 nM, no less than 90% and “A (A represents a DC90 value <10.0 nM)”.
Consider `COc1cc(N2CC(CN3CCC(N4Cc5cc(NC(=O)c6cnn7cccnc67)c(OC(C)C)cc5C4=O)CC3)C2)cc2c1C(=O)N(C1CCC(=O)NC1=O)C2` (stereo not drawn) [Example 21], for which the DC50 was less than 1 nM, the Dmax was no less than 90% and the “PBMC DC90” value was “A (A represents a DC90 value <10.0 nM)”.
Consider `CC(C)Oc1cc2c(cc1NC(=O)c1cnn3cccnc13)CN(C1CCC(N3CCC(c4ccc5c(c4)C(=O)N(C4CCC(=O)NC4=O)C5=O)CC3)CC1)C2=O` (stereo not drawn) [Example 25], for which the DC50 was 1 to 5 nM, the Dmax is no less than 90% and the “PBMC DC90” value is recorded as “A (A represents a DC90 value <10.0 nM)”.
In the case of `O=C1CCC(N2C(=O)c3ccc(N4CCC(CN5CCC(N6Cc7cc(NC(=O)c8cnn9cccnc89)c(OC8CC8)cc7C6=O)CC5)CC4)cc3C2=O)C(=O)N1` (stereo not drawn) [Example 27], the DC50 is less than 1 nM, the Dmax was no less than 90% and the “PBMC DC90” value is “A (A represents a DC90 value <10.0 nM)”.
Taken in the same sequence, the figures for `O=C1CCC(N2Cc3cc(N4CCC(CN5CCC(N6Cc7cc(NC(=O)c8cnn9cccnc89)c(OC8CC8)cc7C6=O)CC5)CC4)ccc3C2=O)C(=O)N1` (stereo not drawn) [Example 28] were less than 1 nM, no less than 90% and “A (A represents a DC90 value <10.0 nM)”.
As to `O=C1CCC(N2Cc3cc(N4CC(N5CCC(N6Cc7cc(NC(=O)c8cnn9cccnc89)c(N8CCC(N9CCC9)CC8)cc7C6=O)CC5)C4)ccc3C2=O)C(=O)N1` (stereo not drawn) [Example 39], the DC50 was 5 to 10 nM; the Dmax is no less than 90%; the “PBMC DC90” value is “C (C represents a DC90 value ≥25.0 nM and <50 nM)”.
For the compound `CC(C)Oc1cc2c(cc1NC(=O)c1cnn3cccnc13)CN(C1CCN(CC(F)(F)C3CN(c4ccc5c(c4)C(=O)N(C4CCC(=O)NC4=O)C5=O)C3)CC1)C2=O` (stereo not drawn) [Example 40], the DC50 is 5 to 10 nM, the Dmax is 80 to 90% and the “PBMC DC90” value is recorded as “D (D represents a DC90 value ≥50 nM)”.
As to `CC(C)Oc1cc2c(cc1NC(=O)c1cnn3cccnc13)CN(C1CCN(CC3(O)CN(c4ccc5c(c4)C(=O)N(C4CCC(=O)NC4=O)C5=O)C3)CC1)C2=O` (stereo not drawn) [Example 61], the half-maximal degradation concentration (DC50) was less than 1 nM, the Dmax is no less than 90% and the “PBMC DC90” value was “A (A represents a DC90 value <10.0 nM)”.
For `CC(C)Oc1cc2c(cc1NC(=O)c1cnn3cccnc13)CN([C@H]1CC[C@H](OC3CCN(c4ccc5c(c4)C(=O)N(C4CCC(=O)NC4=O)C5=O)CC3)CC1)C2=O` (stereo partly drawn) [Example 65] the same measures were 1 to 5 nM, no less than 90% and “A (A represents a DC90 value <10.0 nM)”.
Turning to `CC(C)Oc1cc2c(cc1NC(=O)c1cnn3cccnc13)CN([C@H]1CC[C@H](N3CC4(CN(c5ccc6c(c5)C(=O)N(C5CCC(=O)NC5=O)C6=O)C4)C3)CC1)C2=O` (stereo partly drawn) [Example 68], the DC50 is less than 1 nM, the “PBMC DC90” value is listed as “A (A represents a DC90 value <10.0 nM)” and the “PBMC Dmax” value is “A (A represents a Dmax value ≥90)”.
Regarding `CC(C)Oc1cc2c(cc1NC(=O)c1cnn3cccnc13)CN(C[C@@H](F)C1CCN(CC3CN(c4ccc5c(c4)C(=O)N(C4CCC(=O)NC4=O)C5=O)C3)CC1)C2=O` (stereo partly drawn) [Example 70], the DC50 was less than 1 nM, the Dmax was no less than 90% and the “PBMC DC90” value is reported as “A (A represents a DC90 value <10.0 nM)”.
As to `CC(C)Oc1cc2c(cc1NC(=O)c1cnn3cccnc13)CN(C1CCN(C(=O)C3CN(c4ccc5c(c4)C(=O)N(C4CCC(=O)NC4=O)C5=O)C3)CC1)C2=O` (stereo not drawn) [Example 71], the DC50 was 1 to 5 nM; the Dmax is no less than 90%; the “PBMC DC90” value is “B (B represents a DC90 value ≥10.0 nM and <25.0 nM)”.
For `CC(C)Oc1cc2c(cc1NC(=O)c1cnn3cccnc13)CN(C1CCN(CC3(C)CN(c4ccc5c(c4)C(=O)N(C4CCC(=O)NC4=O)C5=O)C3)CC1)C2=O` (stereo not drawn) [Example 72], the DC50 is less than 1 nM, the Dmax was 80 to 90% and the “PBMC DC90” value is listed as “A (A represents a DC90 value <10.0 nM)”.
For `CC(C)Oc1cc2c(cc1NC(=O)c1cnn3ccc(N4CCOCC4)nc13)CN(C1CCN(CC3CN(c4ccc5c(c4)C(=O)N(C4CCC(=O)NC4=O)C5=O)C3)CC1)C2=O` (stereo not drawn) [Example 73] the same measures were 5 to 10 nM, 70 to 80% and “D (D represents a DC90 value ≥50 nM)”.
On to `CC(C)Oc1cc2c(cc1NC(=O)c1cnn3ccc(N4CCOCC4)nc13)CN(C1CCN(CC3CCN(c4ccc5c(c4)C(=O)N(C4CCC(=O)NC4=O)C5=O)CC3)CC1)C2=O` (stereo not drawn) [Example 74], for which the DC50 fell in the range of 5 to 10 nM, the Dmax was 80 to 90% and the “PBMC DC90” value was “D (D represents a DC90 value ≥50 nM)”.
